Source: PubChem BioAssay AID248 (DTP/NCI, 2004)
Several values for one entry are separate records, joined by “and”; a condition that tells them apart may be missing. Equal values may be shown once. Inconclusive results and toxic doses are left out. No stated cut-off is given here; in the data, active means T/C of 150% or more; inactive means T/C below 125%.

Tested on: L1210 leukemia ip in BDF1 mice, survival T/C
Test: NCI In Vivo Anticancer Drug Screen. Data for tumor model L1210 Leukemia (intraperitoneal) in B6D2F1 (BDF1) mice
Details: endpoint: mean survival time, higher = longer survival
Summary of the method: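 Antitumor effect is assessed in tumor-bearing animals. Survival in the compound arm is compared with a vehicle-dosed control arm and expressed as their quotient.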

Measured: T/C

Nc1n[nH]c(N)n1
inactive: dose: 12.5 mg/kg/injection, schedule: Q#A X020 (ip), vehicle: saline 105 % of control | dose: 25.0 mg/kg/injection, schedule: Q01DX010 (ip), vehicle: saline 103 % of control | dose: 25.0 mg/kg/injection, schedule: Q#A X020 (ip), vehicle: saline 109 % of control | dose: 28.0 mg/kg/injection, schedule: Q03HX040 (ip), vehicle: water 105 % of control | dose: 32.0 mg/kg/injection, schedule: Q01DX015 (ip), vehicle: saline 94 % of control | dose: 48.0 mg/kg/injection, schedule: Q## X008 (ip), vehicle: saline 101 % of control | dose: 50.0 mg/kg/injection, schedule: Q01DX010 (ip), vehicle: saline 110 % of control | dose: 50.0 mg/kg/injection, schedule: Q06HX068 (ip), vehicle: water 106 % of control | dose: 56.0 mg/kg/injection, schedule: Q03HX008 (ip), vehicle: water 103 % of control | dose: 56.0 mg/kg/injection, schedule: Q03HX024 (ip), vehicle: water 111 % of control | dose: 63.0 mg/kg/injection, schedule: Q01DX015 (ip), vehicle: saline 102 % of control | dose: 96.0 mg/kg/injection, schedule: Q## X008 (ip), vehicle: saline 102 % of control | dose: 100.0 mg/kg/injection, schedule: Q01DX009 (ip), vehicle: saline 108 % of control | dose: 100.0 mg/kg/injection, schedule: Q01DX009 (sc), vehicle: saline 102 % of control | dose: 100.0 mg/kg/injection, schedule: Q06HX068 (ip), vehicle: water 110 % of control | dose: 100.0 mg/kg/injection, schedule: Q#A X034 (ip), vehicle: water 107 % of control | dose: 111.0 mg/kg/injection, schedule: Q01DX Z (ip), vehicle: methylcellulose (MC) 100 % of control | dose: 112.0 mg/kg/injection, schedule: Q12HX018 (ip), vehicle: water 111 % of control | dose: 125.0 mg/kg/injection, schedule: Q01DX015 (ip), vehicle: saline 110 % of control | dose: 125.0 mg/kg/injection, schedule: Q03HX008 (oral), vehicle: water 107 % of control | dose: 125.0 mg/kg/injection, schedule: Q03HX024 (oral), vehicle: water 105 % of control | dose: 192.0 mg/kg/injection, schedule: Q## X008 (ip), vehicle: saline 104 % of control | dose: 200.0 mg/kg/injection, schedule: Q01DX001 (ip), vehicle: saline 104 % of control and 107 % of control | dose: 200.0 mg/kg/injection, schedule: Q01DX001 (sc), vehicle: saline 104 % of control | dose: 200.0 mg/kg/injection, schedule: Q01DX006 (iv), vehicle: saline 105 % of control | dose: 200.0 mg/kg/injection, schedule: Q01DX009 (sc), vehicle: saline 108 % of control | dose: 200.0 mg/kg/injection, schedule: Q01DX010 (ip), vehicle: saline 98 % of control | dose: 200.0 mg/kg/injection, schedule: Q01DX017 (ip), vehicle: water 111 % of control | dose: 200.0 mg/kg/injection, schedule: Q## X003 (ip), vehicle: saline 110 % of control | dose: 200.0 mg/kg/injection, schedule: Q## X040 (ip), vehicle: saline 104 % of control | dose: 225.0 mg/kg/injection, schedule: Q12HX010 (ip), vehicle: water 107 % of control | dose: 250.0 mg/kg/injection, schedule: Q03HX008 (oral), vehicle: water 107 % of control | dose: 250.0 mg/kg/injection, schedule: Q03HX024 (oral), vehicle: water 102 % of control | dose: 256.0 mg/kg/injection, schedule: Q## X088 (ip), vehicle: other 98 % of control | dose: 384.0 mg/kg/injection, schedule: Q## X008 (ip), vehicle: saline 103 % of control | dose: 395.0 mg/kg/injection, schedule: Q01DX001 (ip), vehicle: saline 101 % of control and 110 % of control | dose: 400.0 mg/kg/injection, schedule: Q01DX001 (ip), vehicle: saline 106 % of control | dose: 400.0 mg/kg/injection, schedule: Q01DX001 (oral), vehicle: water 102 % of control | dose: 400.0 mg/kg/injection, schedule: Q01DX001 (sc), vehicle: saline 102 % of control | dose: 400.0 mg/kg/injection, schedule: Q01DX009 (sc), vehicle: saline 108 % of control | dose: 400.0 mg/kg/injection, schedule: Q01DX010 (ip), vehicle: saline 104 % of control | dose: 400.0 mg/kg/injection, schedule: Q## X003 (ip), vehicle: saline 106 % of control | dose: 400.0 mg/kg/injection, schedule: Q## X024 (ip), vehicle: saline 100 % of control | dose: 400.0 mg/kg/injection, schedule: Q## X040 (ip), vehicle: saline 108 % of control | dose: 450.0 mg/kg/injection, schedule: Q01DX001 (ip), vehicle: water 103 % of control | dose: 500.0 mg/kg/injection, schedule: Q01DX001 (ip), vehicle: water 97 % of control and 102 % of control | dose: 500.0 mg/kg/injection, schedule: Q01DX001 (oral), vehicle: water 104 % of control | dose: 500.0 mg/kg/injection, schedule: Q01DX005 (oral), vehicle: water 101 % of control | dose: 500.0 mg/kg/injection, schedule: Q01DX Z (ip), vehicle: methylcellulose (MC) 110 % of control | dose: 500.0 mg/kg/injection, schedule: Q03HX008 (oral), vehicle: water 108 % of control | dose: 500.0 mg/kg/injection, schedule: Q04DX003 (oral), vehicle: water 105 % of control | dose: 500.0 mg/kg/injection, schedule: Q## X006 (oral), vehicle: water 102 % of control | dose: 592.0 mg/kg/injection, schedule: Q01DX001 (ip), vehicle: saline 105 % of control and 108 % of control | dose: 675.0 mg/kg/injection, schedule: Q06HX016 (ip), vehicle: saline 100 % of control | dose: 768.0 mg/kg/injection, schedule: Q## X008 (ip), vehicle: saline 111 % of control | dose: 800.0 mg/kg/injection, schedule: Q01DX001 (ip), vehicle: saline 102 % of control and 105 % of control and 106 % of control | dose: 800.0 mg/kg/injection, schedule: Q01DX001 (oral), vehicle: water 105 % of control | dose: 800.0 mg/kg/injection, schedule: Q01DX001 (sc), vehicle: saline 110 % of control | dose: 800.0 mg/kg/injection, schedule: Q## X003 (ip), vehicle: saline 108 % of control | dose: 800.0 mg/kg/injection, schedule: Q## X024 (ip), vehicle: saline 106 % of control | dose: 806.0 mg/kg/injection, schedule: Q01DX001 (ip), vehicle: saline 104 % of control | dose: 806.0 mg/kg/injection, schedule: Q08DX002 (ip), vehicle: saline 101 % of control | dose: 888.0 mg/kg/injection, schedule: Q01DX001 (ip), vehicle: saline 106 % of control and 111 % of control | dose: 900.0 mg/kg/injection, schedule: Q01DX001 (ip), vehicle: water 104 % of control | dose: 900.0 mg/kg/injection, schedule: Q03HX024 (ip), vehicle: saline 95 % of control | dose: 900.0 mg/kg/injection, schedule: Q#A X018 (ip), vehicle: water 94 % of control | dose: 1000.0 mg/kg/injection, schedule: Q01DX001 (ip), vehicle: water 101 % of control and 103 % of control | dose: 1000.0 mg/kg/injection, schedule: Q01DX001 (oral), vehicle: water 98 % of control | dose: 1000.0 mg/kg/injection, schedule: Q04DX003 (oral), vehicle: water 107 % of control | dose: 1200.0 mg/kg/injection, schedule: Q01DX001 (ip), vehicle: saline 105 % of control | dose: 1203.0 mg/kg/injection, schedule: Q01DX001 (ip), vehicle: saline 107 % of control | dose: 1203.0 mg/kg/injection, schedule: Q04DX003 (ip), vehicle: saline 110 % of control | dose: 1203.0 mg/kg/injection, schedule: Q08DX002 (ip), vehicle: saline 102 % of control | dose: 1333.0 mg/kg/injection, schedule: Q01DX001 (ip), vehicle: saline 106 % of control and 110 % of control | dose: 1600.0 mg/kg/injection, schedule: Q01DX001 (ip), vehicle: saline 107 % of control and 110 % of control | dose: 1600.0 mg/kg/injection, schedule: Q01DX001 (oral), vehicle: water 108 % of control | dose: 1600.0 mg/kg/injection, schedule: Q01DX001 (sc), vehicle: saline 107 % of control | dose: 1600.0 mg/kg/injection, schedule: Q01DX Z (oral), vehicle: saline 109 % of control | dose: 1796.0 mg/kg/injection, schedule: Q01DX001 (ip), vehicle: saline 109 % of control | dose: 1796.0 mg/kg/injection, schedule: Q08DX002 (ip), vehicle: saline 107 % of control | dose: 1800.0 mg/kg/injection, schedule: Q01DX001 (ip), vehicle: water 103 % of control | dose: 2000.0 mg/kg/injection, schedule: Q01DX001 (ip), vehicle: saline 110 % of control | dose: 2000.0 mg/kg/injection, schedule: Q01DX001 (ip), vehicle: water 101 % of control and 103 % of control | dose: 2000.0 mg/kg/injection, schedule: Q01DX001 (oral), vehicle: water 96 % of control | dose: 2000.0 mg/kg/injection, schedule: Q01DX Z (ip), vehicle: saline 96 % of control | dose: 2000.0 mg/kg/injection, schedule: Q01DX Z (ip), vehicle: water 94 % of control | dose: 2680.0 mg/kg/injection, schedule: Q08DX002 (ip), vehicle: saline 110 % of control | dose: 4000.0 mg/kg/injection, schedule: Q01DX001 (ip), vehicle: water 108 % of control | dose: 4000.0 mg/kg/injection, schedule: Q## X006 (oral), vehicle: water 107 % of control
